Data as given in US7879315B2, “Agent for dissolving dental calculi and dental caries” (Showa Yakuhin Kako Co., Ltd., priority 2002, dated 2011).

Assay: Dissolution of dental calculus by immersion (weight after treatment)

With `O=C(O)CC(O)(CC(=O)O)C(=O)O` [citric acid] the “weight of dental calculus after the treatment” value (“weight of dental calculus” below) (1.3 mg calculus immersed 13 minutes in 1 ml of 10% aqueous solution) was 0.65 mg.
In the case of `O=C(O)CO` [glycolic acid], the “weight of dental calculus” value (0.9 mg calculus immersed 9 minutes in 1 ml of 10% aqueous solution) is reported as 0.5 mg.
In the case of polyphosphoric acid, the “weight of dental calculus” value (1.5 mg calculus immersed 7 minutes and 30 seconds in 1 ml of 10% aqueous solution) is reported as 0.7 mg.
With `O=P(O)(O)OP(=O)(O)O` [pyrophosphoric acid] the “weight of dental calculus” value (2.2 mg calculus immersed 7 minutes in 1 ml of 10% aqueous solution) was 1.1 mg.
In the case of `O=C(O)CC(O)C(=O)O` (stereo not shown) [malic acid], the “weight of dental calculus” value (1.2 mg calculus immersed 13 minutes in 1 ml of 10% aqueous solution) is reported as 0.6 mg.
In the case of `O=P(O)(O)O[C@H]1[C@H](OP(=O)(O)O)[C@@H](OP(=O)(O)O)[C@H](OP(=O)(O)O)[C@@H](OP(=O)(O)O)[C@H]1OP(=O)(O)O` [phytic acid], the “weight of dental calculus” value (3.0 mg calculus immersed 5 minutes in 1 ml aqueous solution containing 0.5 g phytic acid (15% aqueous solution)) is reported as 2.6 mg and the “weight of dental calculus” value (3.0 mg calculus immersed 10 minutes in 1 ml aqueous solution containing 0.5 g phytic acid (15% aqueous solution)) is reported as 2.1 mg.
For `O=C([O-])CN(CCN(CC(=O)[O-])CC(=O)O)CC(=O)O.[Na+].[Na+]` [disodium edetate], the “weight of dental calculus” value (0.50 mg calculus immersed 44 minutes in 1 ml of 14.3% solution) was 0.25 mg.
In the case of `O=P(O)(O)O` [phosphoric acid], the “weight of dental calculus” value (1.2 mg calculus immersed 7 minutes and 30 seconds in 1 ml of 10% aqueous solution) is reported as 0.6 mg and the “weight of dental calculus” value (1.4 mg calculus immersed 8 minutes and 30 seconds in 1 ml of 2% aqueous solution) is reported as 0.7 mg.
